Experimental data as given in US8518946B2, “Salts of (R)-7-[3-amino-4-(2,4,5-trifluorophenyl)butanoyl]-3-trifluoromethyl-5,6,7,8-tetrahydroimidazo[1,5-a] pyrazine-1-carboxylic acid, preparation method and medical use thereof” (Jiangsu Hengrui Medicine Co., Ltd., priority 2009, dated 2013).
≈ marks a conversion by molar mass, not a printed value. Where two headings read alike, the source gives them in different places.

Legend:
[1] = Solubility experiment in four systems; type: physicochemical
Method: According to the conventional solubility measurement, the solubility of the test samples were determined in four different systems: phosphate buffer solution (PBS, pH=7.4), methanol, 0.1% hydrochloric acid and water.

DPP-IV = target: T1, DPP-IV (Homo sapiens, UniProt P27487); test: DPP-IV inhibition, Promega DPPIV-Glo Protease Assay; type: biochemical
T1 construct: purchased Calbiochem 317630
T1 sequence (P27487 whole entry): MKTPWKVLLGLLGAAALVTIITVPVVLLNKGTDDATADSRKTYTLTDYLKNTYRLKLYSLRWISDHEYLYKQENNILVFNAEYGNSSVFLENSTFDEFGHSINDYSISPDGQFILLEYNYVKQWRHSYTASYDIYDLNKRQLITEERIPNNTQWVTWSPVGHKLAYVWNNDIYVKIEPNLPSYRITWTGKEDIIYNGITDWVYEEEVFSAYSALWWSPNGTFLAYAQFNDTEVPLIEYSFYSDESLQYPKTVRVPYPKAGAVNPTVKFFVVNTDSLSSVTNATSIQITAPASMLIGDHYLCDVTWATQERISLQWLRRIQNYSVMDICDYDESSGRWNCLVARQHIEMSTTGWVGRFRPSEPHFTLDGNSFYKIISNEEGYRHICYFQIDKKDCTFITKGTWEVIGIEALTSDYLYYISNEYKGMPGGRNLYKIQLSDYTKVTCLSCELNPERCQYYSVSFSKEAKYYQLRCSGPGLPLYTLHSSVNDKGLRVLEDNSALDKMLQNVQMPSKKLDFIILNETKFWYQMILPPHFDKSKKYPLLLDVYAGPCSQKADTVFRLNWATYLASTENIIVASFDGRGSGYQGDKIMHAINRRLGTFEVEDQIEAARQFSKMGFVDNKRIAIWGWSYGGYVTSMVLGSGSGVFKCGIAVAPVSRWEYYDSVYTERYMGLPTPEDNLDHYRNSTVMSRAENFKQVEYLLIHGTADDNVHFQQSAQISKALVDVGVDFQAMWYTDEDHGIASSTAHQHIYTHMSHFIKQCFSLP
Method: (§1) The compounds of the present invention were tested to determine their DPP-IV, DPP-VIII, DPP-IX inhibition activity according to the following methods. The half inhibition concentrations IC50 (the concentration of the test compound showing 50% inhibition to the enzyme activity) of each compound were determined by reaction test and calculation of the mixture of fixed amounts of enzyme and substrate with several different concentrations of the test compounds.
(§2) The compounds of the present invention were tested to determine the DPP-IV, DPP-VIII, DPP-IX inhibition activity in the following tests using Promega DPPIV-Glo™ Protease Assay (Cat No. G8350/G8351) Kit, wherein:
a. DPP-IV enzyme bought from Calbiochem, Catalog no. 317630;
(§3) The preparation procedure of the conventional reagent such as DPPIV-Glo buffer, luciferin reagents needed in the test and the detail operation of the test can refer to the specifications of the kits. The assay was carried out as following steps:
(§4) The tested compounds were dissolved in DMSO to prepare a series of different concentrations of the test compound solution. DPPIV-Glo buffer and the freezing luciferin detection reagent were equilibrated to room temperature. The luciferin detection reagent was dissolved in moderate buffer in a brown flask to form a solution. Then DPP-IV-Glo. was dissolved in ultrapure water to give the appropriate concentration. The substrate solution and the luciferin detection reagent solution were mixed sufficiently in an appropriate ratio (the ratio of the invention is 1:49), and the mixture was layed at room temperature for 30-60 minutes. Tris buffer (2 mM, pH 8.0), the test compounds and DPP-IV (DPP-VIII or DPP-IX) were mixed and then transferred to a 96-well plate. Each test contains double-well of three-well control. The same volume of DMSO was added to the negative control and blank control. Then the 96-well plate was added with mixed solution of luciferin detection reagent and substrate to initiate the reaction. The 96-wells plate was incubated at room temperature on a plate shaker for 40 minutes after sealed. The strength of the fluorescent signal in each well was determined by microplate reader and the inhibition rate to the enzyme of the compound at this concentration was calculated by the formula as following: inhibitory rate: IR=[1−(S−B)/(N−B)]*100% • S: value of the sample • B: value of the blank control • N: value of the negative control
(§5) IC50 of the test compounds can be calculated by the inhibition rate at different concentration.

DPP-VIII = target: T2, DPP-VIII (Homo sapiens, UniProt Q6V1X1); test: DPP-VIII inhibition, Promega DPPIV-Glo Protease Assay; type: biochemical; conditions: read-out: IC50 DPP8
T2 construct: purchased Bioscience 80080
T2 sequence (Q6V1X1 whole entry): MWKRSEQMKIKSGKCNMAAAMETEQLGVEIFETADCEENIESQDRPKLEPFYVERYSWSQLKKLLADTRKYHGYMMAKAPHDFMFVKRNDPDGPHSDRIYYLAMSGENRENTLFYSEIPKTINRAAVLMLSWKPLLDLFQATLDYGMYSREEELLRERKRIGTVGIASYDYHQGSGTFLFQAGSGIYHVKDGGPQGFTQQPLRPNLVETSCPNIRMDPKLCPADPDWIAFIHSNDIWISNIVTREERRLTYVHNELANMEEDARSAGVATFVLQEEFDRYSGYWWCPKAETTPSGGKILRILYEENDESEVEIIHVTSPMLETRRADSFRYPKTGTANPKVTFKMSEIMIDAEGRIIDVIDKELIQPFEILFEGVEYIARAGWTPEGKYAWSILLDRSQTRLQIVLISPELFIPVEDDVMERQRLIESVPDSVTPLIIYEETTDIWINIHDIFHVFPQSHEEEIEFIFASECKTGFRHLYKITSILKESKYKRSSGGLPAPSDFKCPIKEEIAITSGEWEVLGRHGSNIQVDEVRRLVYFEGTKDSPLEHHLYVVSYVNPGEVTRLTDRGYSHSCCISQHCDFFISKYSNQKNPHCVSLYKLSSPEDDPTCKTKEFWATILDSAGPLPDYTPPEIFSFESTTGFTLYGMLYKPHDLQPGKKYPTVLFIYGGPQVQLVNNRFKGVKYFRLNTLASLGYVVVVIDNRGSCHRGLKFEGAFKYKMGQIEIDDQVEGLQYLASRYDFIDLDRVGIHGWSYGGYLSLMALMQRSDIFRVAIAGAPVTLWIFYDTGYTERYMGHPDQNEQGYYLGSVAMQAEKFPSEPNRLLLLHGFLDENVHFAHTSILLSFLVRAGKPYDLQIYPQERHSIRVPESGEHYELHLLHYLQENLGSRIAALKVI
Method: as §1, §2
b. DPP-VIII enzyme bought from Bioscience, Catalog no. 80080;
as §3, §4, §5

DPP-IX = target: T3, DPP-IX (Homo sapiens, UniProt Q86TI2); test: DPP-IX inhibition, Promega DPPIV-Glo Protease Assay; type: biochemical; conditions: read-out: IC50 DPP9
T3 construct: purchased Bioscience 80090
T3 sequence (Q86TI2 whole entry): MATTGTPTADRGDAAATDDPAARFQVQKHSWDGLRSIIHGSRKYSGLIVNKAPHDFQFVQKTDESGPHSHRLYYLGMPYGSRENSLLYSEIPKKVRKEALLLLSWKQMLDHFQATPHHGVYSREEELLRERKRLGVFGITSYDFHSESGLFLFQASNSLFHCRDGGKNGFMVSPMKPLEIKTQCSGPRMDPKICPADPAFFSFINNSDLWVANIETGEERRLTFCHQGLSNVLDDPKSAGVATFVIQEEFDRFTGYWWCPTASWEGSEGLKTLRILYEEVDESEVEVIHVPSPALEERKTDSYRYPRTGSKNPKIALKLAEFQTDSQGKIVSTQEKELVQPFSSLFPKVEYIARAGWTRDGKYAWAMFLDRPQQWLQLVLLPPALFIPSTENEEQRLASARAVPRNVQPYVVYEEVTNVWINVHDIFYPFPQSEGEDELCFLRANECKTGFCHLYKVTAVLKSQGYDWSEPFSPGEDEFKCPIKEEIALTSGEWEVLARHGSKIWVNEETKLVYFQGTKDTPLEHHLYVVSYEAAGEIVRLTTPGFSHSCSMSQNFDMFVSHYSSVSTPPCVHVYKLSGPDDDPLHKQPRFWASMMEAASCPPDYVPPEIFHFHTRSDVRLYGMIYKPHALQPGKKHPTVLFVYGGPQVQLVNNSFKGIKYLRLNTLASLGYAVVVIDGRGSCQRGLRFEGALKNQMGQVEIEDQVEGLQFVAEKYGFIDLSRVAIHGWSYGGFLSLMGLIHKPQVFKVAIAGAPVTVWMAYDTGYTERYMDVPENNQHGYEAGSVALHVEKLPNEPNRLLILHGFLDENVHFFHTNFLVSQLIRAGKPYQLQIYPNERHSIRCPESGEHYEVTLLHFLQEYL
Method: as §1, §2
c. DPP-IX enzyme bought from Bioscience, Catalog no. 80090.
as §3, §4, §5

[2] = Pharmacokinetics assay in rats (LC/MS/MS plasma concentration); type: in vivo, SD rats; conditions: for F: intragastric 3.0 mg/kg (as free base), absolute bioavailability from AUC0-t vs vein injection
Description: The compound of Example 3 was administrated intragastrically or tail vein injection to rats and the compounds of Example 1-4, Example 9 and Example 11-12 were administrated intragastrically to determine the drug concentration in plasma at different time points by LC/MS/MS measurement. The pharmacokinetics of the compounds of the present invention was studied and evaluated in rats. And the oral absolute bioavailability was investigated.
Compounds of Example 1-4, Example 9 and Example 11-12.
[…] healthy adult SD rats, male and female in half, were purchased from SINO-BRITSH SIPPR/BK LAB.ANIMAL LTD., CO, License number: SCXK (Shanghai) 2008-0016.
Vein injection group: the proper weighed test compound was dissolved in 0.5 mL of DMSO by ultrasound and then diluted with normal saline to 15 mL to form a 0.3 mg/mL solution.
Intragastrically administered group: the proper weighed test compound was dissolved in 0.5% CMC-Na by ultrasound to form a 0.3 mg/mL of suspension.
32 healthy adult SD rats, male and female in half, were divided into 8 groups so that each group consisted 4 rats. After an overnight fast, the rats were tail vein injected of the compound of Example 3 and intragastrically administered the compound of Example 3 and the salt thereof, at a dose of 3.0 mg/kg (calculated as the free base form) and a volume of 10 mL/kg.
Blood samples (0.2 mL) of the rats in vein injection group were taken from eye socket at pre administration and at 2, 15, 30 minutes and 1.0, 2.0, 4.0, 6.0, 8.0, 12.0, 24.0 hours post administration, which were stored in heparinized tubes and centrifuged for 10 minutes at 3,500 rpm. The plasma samples were stored at −20° C. until analysis. The rats were fed 2 hours after administration.
Blood samples of the rats in intragastrically administered group were taken at pre administration and at 0.5, 1.0, 2.0, 3.0, 4.0, 6.0, 8.0, 12.0, 24.0 hours post administration. The samples were treated with the same method as mentioned above.
50 μL of internal standard solution and 150 μL of methanol were added to 50 μL of rat plasma obtained at various time points after administration. Then the mixture was mixed for 3 minutes using a vortexer and centrifuged for 10 minutes at 13,500 rpm. 10 μL of the supernatant was analyzed by LC/MS/MS.
The compartmental model of pharmacokinetics was fitted for the test compounds and the major pharmacokinetic parameters were calculated by DAS 2.0 software in which Cmax and tmax were the actually measured values. The absolute bioavailability was calculated by AUC0-t taken from post administration and vein injection.

normal ICR mice = test: Hypoglycemic effect, oral glucose tolerance in normal ICR mice; type: in vivo; conditions: 10 mg/kg by gavage, glucose 4 g/kg 15 minutes after administration
Method: To observe the effects on oral glucose tolerance of the compounds of Example 1-4 and Example 8-12 in normal ICR mice (SINO-BRITSH SIPPR/BK LAB.ANIMAL LTD., CO), the hypoglycemic effects in vivo have been evaluated using blood-glucose meter to measure and analyze the sugar content of the samples at different time points during 2 hours. The samples were taken from the mouse's tail.
The administration dose was 10 mg/kg, and the blank was administered with water. Both groups contained 5% DMSO.
The mice were administered by gavage. 4 g/kg of 10% glucose solution was administered (0.8 mL to each mice) 15 minutes after administration.
The mice were administered according to above dose (the blank group was administrated with 5% DMSO aqueous solution) and the blood sugar value was measured (−15 minutes).
15 minutes after administration, the mice were administered of 4 g/kg of 20% glucose solution and the values of blood sugar were tested by Roche ACCU-CHEK at 0, 15, 30, 45, 60, 120 minutes.

[3] = intragastric 3.0 mg/kg, phosphate
[4] = both sexes, SD, rat, plasma, po, 3 mg/kg, intragastric 3.0 mg/kg
[5] = both sexes, SD, rat, plasma, po, 3 mg/kg, intragastric 3.0 mg/kg, read-out: MRT
[6] = both sexes, SD, rat, plasma, po, 3 mg/kg, intragastric 3.0 mg/kg, read-out: Tmax

IC50 (DPP-IV) [µM]	IC50 (DPP-VIII) [µM]	IC50 (DPP-IX) [µM]	Solubility Value, 0.1% HCl ([1]; 0.1% hydrochloric acid) [mg/mL]	Solubility Value, PBS (pH 7.4) ([1]; PBS pH 7.4) [mg/mL]	Solubility Value, methanol ([1]; methanol) [mg/mL]	Solubility Value, water ([1]; water) [mg/mL]	AUC(0-t) ([2]; intragastric 3.0 mg/kg) [ng·h/mL]	CL/F ([2]; intragastric 3.0 mg/kg) [mL/min/kg]	Cmax ([2]; intragastric 3.0 mg/kg) [ng/mL]	F [2] [%]	half-life [2, 4] [h]	MRT [2, 5] [h]	Tmax [2, 6] [h]	Compound	Hypoglycemic rate of blood sugar of 30 minutes after administration (normal ICR mice; 10 mg/kg) [%]	also measured
0.015	400	185	–	–	–	–	–	–	–	–	–	–	–	N[C@@H](CC(=O)N1CCn2c(C(F)(F)F)nc(C(=O)O)c2C1)Cc1cc(F)c(F)cc1F [Example 2, (R)-7-[3-Amino-4-(2,4,5-trifluorophenyl)butanoyl]-3-trifluoromethyl-5,6,7,8-tetrahydro-imidazo[1,5-a]pyrazine-1-carboxylic acid phosphate]	–	Solubility Value, 0.1% HCl ([1]; 0.1% hydrochloric acid, phosphate): 32.5 mg/mL; Solubility Value, PBS (pH 7.4) ([1]; PBS pH 7.4, phosphate): 20.2 mg/mL; Solubility Value, methanol ([1]; methanol, phosphate): 37.5 mg/mL; Solubility Value, water ([1]; water, phosphate): 26.1 mg/mL; pharmacokinetics and bioavailability (conclusion in words) ([2]; compared with other compounds): improved obviously; F ([2]; phosphate): 8.63%; AUC(0-t) [2, 3]: 198.1 ± 57.4 ng·h/mL; CL/F [2, 3]: 270 ± 75.8 mL/min/kg; Cmax [2, 3]: 66.6 ± 36.4 ng/mL; MRT [2, 3]: 4.05 ± 3.66 h; Tmax [2, 3]: 0.92 ± 0.58 h; t1/2 [2, 3]: 1.69 ± 1.24 h; Hypoglycemic rate of blood sugar of 30 minutes after administration (normal ICR mice; phosphate, 10 mg/kg): 29.96%
0.013	236	125	20.5 (≈ 45.5 mM)	7.0	32.7 (≈ 72.6 mM)	9.2 (≈ 20.4 mM)	58.3 ± 17.3	862 ± 267	13.4 ± 5.6	2.54	–	–	–	N[C@@H](CC(=O)N1CCn2c(C(F)(F)F)nc(C(=O)O)c2C1)Cc1cc(F)c(F)cc1F [Example 3, (R)-7-[3-Amino-4-(2,4,5-trifluorophenyl)butanoyl]-3-trifluoromethyl-5,6,7,8-tetrahydro-imidazo[1,5-a]pyrazine-1-carboxylic acid]	25.60	half-life ([2]; both sexes, SD, rat, plasma, iv, 3 mg/kg, tail vein injection 3.0 mg/kg): 2.35 ± 1.9 h; AUC(0-t) ([2]; both sexes, SD, rat, plasma, iv, 3 mg/kg, tail vein injection 3.0 mg/kg, read-out: AUC0-t): 2300 ± 353 ng·h/mL; MRT ([2]; both sexes, SD, rat, plasma, iv, 3 mg/kg, tail vein injection 3.0 mg/kg, read-out: MRT): 0.22 ± 0.06 h; MRT ([2]; intragastric 3.0 mg/kg): 4.45 ± 1.01 h; Tmax ([2]; intragastric 3.0 mg/kg): 1.00 ± 0.00 h; t1/2 ([2]; intragastric 3.0 mg/kg): 2.73 ± 0.73 h; CL/F ([2]; tail vein injection 3.0 mg/kg): 22.2 ± 3.33 mL/min/kg
0.022	77.3	42.3	–	–	–	–	–	–	–	2.90	2.65 ± 0.94	4.3 ± 0.6	1.75 ± 0.96	N[C@@H](CC(=O)N1CCn2c(C(F)(F)F)nc(C(=O)[O-])c2C1)Cc1cc(F)c(F)cc1F.[Na+] [Example 4, Sodium (R)-7-[3-amino-4-(2,4,5-trifluorophenyl)butanoyl]-3-trifluoromethyl-5,6,7,8-tetrahydro-imidazo[1,5-a]pyrazine-1-carboxylate]	–	solubility ([1]; 0.1% hydrochloric acid, simulated gastric fluid, 0.1% hydrochloric acid, read-out: Solubility Value, 0.1% HCl): 94.8 mg/mL; solubility ([1]; methanol, organic solvent or mixture, methanol, read-out: Solubility Value, methanol): 46.7 mg/mL; solubility ([1]; phosphate buffer solution (PBS), pH 7.4, aqueous buffer, PBS pH 7.4, read-out: Solubility Value, PBS (pH 7.4)): 57.4 mg/mL; solubility ([1]; water, read-out: Solubility Value, water): 43.5 mg/mL; AUC(0-t) ([2]; both sexes, SD, rat, plasma, po, 3 mg/kg, intragastric 3.0 mg/kg, read-out: AUC0-t): 66.6 ± 10.6 ng·h/mL; CL/F ([2]; both sexes, SD, rat, plasma, po, 3 mg/kg, intragastric 3.0 mg/kg, read-out: CL/F (converted)): 728 mL/min/kg; Cmax ([2]; both sexes, SD, rat, plasma, po, 3 mg/kg, intragastric 3.0 mg/kg, read-out: Cmax): 14.2 ± 2 ng/mL; Vd/F ([2]; both sexes, SD, rat, plasma, po, 3 mg/kg, intragastric 3.0 mg/kg, read-out: Vz/F): 164 ± 56 L/kg; Hypoglycemic rate of blood sugar of 30 minutes after administration (normal ICR mice): 9.49%
0.012	114	128	12.6	0.3	35.2	1.0	93.2 ± 36.4	548 ± 167	25.1 ± 13.9	4.06	3.18 ± 0.71	4.34 ± 0.66	1.25 ± 0.5	N[C@@H](CC(=O)N1CCn2c(C(F)(F)F)nc(C(=O)O)c2C1)Cc1cc(F)c(F)cc1F [Example 9, 2-Hydroxyethylammonium (R)-7-[3-amino-4-(2,4,5-trifluorophenyl)butanoyl]-3-trifluoromethyl-5,6,7,8-tetrahydro-imidazo[1,5-a]pyrazine-1-carboxylate]	27.56	–
